Consider 33 compounds from patent US20220144815A1, “1,3,4-OXADIAZOLES AND THEIR DERIVATIVES AS NEW ANTIFUNGAL AGENTS” (Bayer Aktiengesellschaft, priority 2018, published 2022).

Read-outs that look alike come from different tables or passages of the source.

This series in a line: Log P by HPLC on reversed phase columns, method [a] (EEC directive 79/831 Annex V.A8). The conditions noted are these: reversed phase HPLC column. The class given is physicochemical. Put shortly: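 Reversed-phase HPLC with LC-UV detection per EEC directive 79/831 Annex V.A8, acidic eluent of 0.1% formic acid in water and acetonitrile, linear gradient 10% to 95% acetonitrile. Log P derived from retention times, calibrated against straight-chain alkan-2-ones (C3–C16) by linear interpolation.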

[1] abbreviates: method [a], HPLC on reversed phase columns, read-out: logP.
Setting [2] is: Method A: LC-UV, acidic range, 0.1% formic acid in water and acetonitrile, read-out: Log P.

For the compound `CC(C)(Nc1ncc(-c2nnc(C(F)F)o2)cn1)c1ccc(Cl)cc1` [I.231, N-[2-(4-chlorophenyl)propan-2-yl]-5-[5-(difluoromethyl)-1,3,4-oxadiazol-2-yl]pyrimidin-2-amine], the chromatographic logP under setting [1] was determined as 3.55. The same measure, in the same setting: with `Fc1ccc(C(F)(F)CNc2ncc(-c3nnc(C(F)F)o3)cn2)cc1` [I.234, N-[2,2-difluoro-2-(4-fluorophenyl)ethyl]-5-[5-(difluoromethyl)-1,3,4-oxadiazol-2-yl]pyrimidin-2-amine] the figure was 2.9; with `COc1cccc(C2(Nc3ncc(-c4nnc(C(F)F)o4)cn3)CC2)c1F` [I.236, 5-[5-(difluoromethyl)-1,3,4-oxadiazol-2-yl]-N-[1-(2-fluoro-3-methoxyphenyl)cyclopropyl]pyrimidin-2-amine], 2.81.

Consider `FC(F)c1nnc(-c2cnc(NC3(c4ccc(Cl)cc4)CCC3)nc2)o1` [I.237, N-[1-(4-chlorophenyl)cyclobutyl]-5-[5-(difluoromethyl)-1,3,4-oxadiazol-2-yl]pyrimidin-2-amine], for which the chromatographic logP under setting [1] is 3.71. As for `FC(F)c1nnc(-c2cnc(NC(c3ccccc3)c3ccccc3)nc2)o1` [I.238, 5-[5-(difluoromethyl)-1,3,4-oxadiazol-2-yl]-N-(diphenylmethyl)pyrimidin-2-amine], the chromatographic logP under setting [1] is 3.52. In the case of `C#CCN(c1ncc(-c2nnc(C(F)F)o2)cn1)C1(c2ccccc2F)CC1` [I.241, 5-[5-(difluoromethyl)-1,3,4-oxadiazol-2-yl]-N-[1-(2-fluorophenyl)cyclopropyl]-N-(prop-2-yn-1-yl)pyrimidin-2-amine], the chromatographic logP under setting [1] amounted to 4.09. On the same count and under the same terms, with `CC(C)(C)c1ccc(C2(Nc3ncc(-c4nnc(C(F)F)o4)cn3)CC2)cc1` [I.242, N-[1-(4-tert-butylphenyl)cyclopropyl]-5-[5-(difluoromethyl)-1,3,4-oxadiazol-2-yl]pyrimidin-2-amine] the figure was 4.05; with `COc1ccc(C2(Nc3ncc(-c4nnc(C(F)F)o4)cn3)CC2)cc1OC` [I.243, 5-[5-(difluoromethyl)-1,3,4-oxadiazol-2-yl]-N-[1-(3,4-dimethoxyphenyl)cyclopropyl]pyrimidin-2-amine], 2.39. On the same count and under the same terms, with `Fc1ccc([C@H](Nc2ncc(-c3nnc(C(F)F)o3)cn2)C2CCCC2)cc1` [I.244, N—[(R)-cyclopentyl(4-fluorophenyl)methyl]-5-[5-(difluoromethyl)-1,3,4-oxadiazol-2-yl]pyrimidin-2-amine] the figure was 4.05. On the same count and under the same terms, the figure for `FC(F)Oc1cccc(C2(Nc3ncc(-c4nnc(C(F)F)o4)cn3)CC2)c1` [I.246, N-{1-[3-(difluoromethoxy)phenyl]cyclopropyl}-5-[5-(difluoromethyl)-1,3,4-oxadiazol-2-yl]pyrimidin-2-amine] is 2.91; for `FC(F)Oc1ccc(C2(Nc3ncc(-c4nnc(C(F)F)o4)cn3)CC2)cc1` [I.247, N-{1-[4-(difluoromethoxy)phenyl]cyclopropyl}-5-[5-(difluoromethyl)-1,3,4-oxadiazol-2-yl]pyrimidin-2-amine] it is 2.91; for `FC(F)Oc1ccccc1C1(Nc2ncc(-c3nnc(C(F)F)o3)cn2)CC1` [I.248, N-{1-[2-(difluoromethoxy)phenyl]cyclopropyl}-5-[5-(difluoromethyl)-1,3,4-oxadiazol-2-yl]pyrimidin-2-amine] it is 3.21.

Regarding `FC(F)c1nnc(-c2cnc(NC3(c4cccc(C(F)(F)F)c4)CC3)nc2)o1` [I.249, 5-[5-(difluoromethyl)-1,3,4-oxadiazol-2-yl]-N-{1-[3-(trifluoromethyl)phenyl]cyclopropyl}pyrimidin-2-amine], under setting [1], the chromatographic logP was 3.24. For `FC(F)c1nnc(-c2cnc(NC3(c4ccc(C(F)(F)F)cc4)CC3)nc2)o1` [I.250, 5-[5-(difluoromethyl)-1,3,4-oxadiazol-2-yl]-N-{1-[4-(trifluoromethyl)phenyl]cyclopropyl}pyrimidin-2-amine], under setting [1], the chromatographic logP turned out to be 3.25.

In the case of `FC(F)c1nnc(-c2cnc(NC3(c4cc(Cl)ccc4Cl)CC3)nc2)o1` [I.251, N-[1-(2,5-dichlorophenyl)cyclopropyl]-5-[5-(difluoromethyl)-1,3,4-oxadiazol-2-yl]pyrimidin-2-amine], the chromatographic logP under setting [1] came to 3.84. `FC(F)c1nnc(-c2cnc(NC3(c4ccc(Cl)c(Cl)c4)CC3)nc2)o1` [I.252, N-[1-(3,4-dichlorophenyl)cyclopropyl]-5-[5-(difluoromethyl)-1,3,4-oxadiazol-2-yl]pyrimidin-2-amine]: the chromatographic logP under setting [1] was found to be 3.43. Turning to `FC(F)c1nnc(-c2cnc(NC3(c4cccc(Cl)c4Cl)CC3)nc2)o1` [I.253, N-[1-(2,3-dichlorophenyl)cyclopropyl]-5-[5-(difluoromethyl)-1,3,4-oxadiazol-2-yl]pyrimidin-2-amine], under setting [1], the chromatographic logP came to 3.74. Same read-out and setting: with `FC(F)c1nnc(-c2cnc(NC3(c4cc(Cl)cc(Cl)c4)CC3)nc2)o1` [I.254, N-[1-(3,5-dichlorophenyl)cyclopropyl]-5-[5-(difluoromethyl)-1,3,4-oxadiazol-2-yl]pyrimidin-2-amine] the figure was 3.63; with `FC(F)c1nnc(-c2cnc(NC3(c4ccc(Cl)cc4Cl)CC3)nc2)o1` [I.255, N-[1-(2,4-dichlorophenyl)cyclopropyl]-5-[5-(difluoromethyl)-1,3,4-oxadiazol-2-yl]pyrimidin-2-amine], 4.05. For `CC(C)(Nc1ncc(-c2nnc(C(F)F)o2)cn1)c1cccc(C(F)(F)F)c1` [I.256, 5-[5-(difluoromethyl)-1,3,4-oxadiazol-2-yl]-N-{2-[3-(trifluoromethyl)phenyl]propan-2-yl}pyrimidin-2-amine], the chromatographic logP under setting [1] worked out at 3.63. On the same count and under the same terms, the figure for `FC(F)c1nnc(-c2cnc(NC3(c4cccc(Cl)c4)CCCCC3)nc2)o1` [I.258, N-[1-(3-chlorophenyl)cyclohexyl]-5-[5-(difluoromethyl)-1,3,4-oxadiazol-2-yl]pyrimidin-2-amine] is 4.35.

In the case of `O=[N+]([O-])c1cc(C2(Nc3ncc(-c4nnc(C(F)F)o4)cn3)CC2)ccc1Cl` [I.259, N-[1-(4-chloro-3-nitrophenyl)cyclopropyl]-5-[5-(difluoromethyl)-1,3,4-oxadiazol-2-yl]pyrimidin-2-amine], the chromatographic logP under setting [1] was 2.96. For `Fc1ccccc1C1(N(CC(F)F)c2ncc(-c3nnc(C(F)F)o3)cn2)CC1` [I.261, N-(2,2-difluoroethyl)-5-[5-(difluoromethyl)-1,3,4-oxadiazol-2-yl]-N-[1-(2-fluorophenyl)cyclopropyl]pyrimidin-2-amine], under setting [1], the chromatographic logP stood at 4.4.

As for `FC(F)c1nnc(-c2cnc(NC3(c4cccc(OC(F)(F)F)c4)CC3)nc2)o1` [I.262, 5-[5-(difluoromethyl)-1,3,4-oxadiazol-2-yl]-N-{1-[3-(trifluoromethoxy)phenyl]cyclopropyl}pyrimidin-2-amine], under setting [1], the chromatographic logP turned out to be 3.37. On to `Fc1cc(C(F)(F)F)ccc1C1(Nc2ncc(-c3nnc(C(F)F)o3)cn2)CC1` [I.263, 5-[5-(difluoromethyl)-1,3,4-oxadiazol-2-yl]-N-{1-[2-fluoro-4-(trifluoromethyl)phenyl]cyclopropyl}pyrimidin-2-amine], for which the chromatographic logP under setting [1] turned out to be 3.59.

Regarding `FC(F)c1nnc(-c2cnc(NC3(c4cccc(Oc5ccccc5)c4)CC3)nc2)o1` [I.265, 5-[5-(difluoromethyl)-1,3,4-oxadiazol-2-yl]-N-[1-(3-phenoxyphenyl)cyclopropyl]pyrimidin-2-amine], the chromatographic logP under setting [1] came to 3.62. On to `FC(F)c1nnc(-c2cnc(NC3(c4ccc(C(F)(F)F)cc4)CCCC3)nc2)o1` [I.266, 5-[5-(difluoromethyl)-1,3,4-oxadiazol-2-yl]-N-{1-[4-(trifluoromethyl)phenyl]cyclopentyl}pyrimidin-2-amine], for which, under setting [1], the chromatographic logP turned out to be 4.16. Same read-out and setting: with `O=C(N(c1ncc(-c2nnc(C(F)F)o2)cn1)C1(c2ccccc2F)CC1)C(F)(F)F` [I.267, N-{5-[5-(difluoromethyl)-1,3,4-oxadiazol-2-yl]pyrimidin-2-yl}-2,2,2-trifluoro-N-[1-(2-fluorophenyl)cyclopropyl]acetamide] the figure was 3.91; with `FC(F)c1nnc(-c2cnc(NC3(c4ccccc4Br)CCCCC3)nc2)o1` [I.268, N-[1-(2-bromophenyl)cyclohexyl]-5-[5-(difluoromethyl)-1,3,4-oxadiazol-2-yl]pyrimidin-2-amine], 4.38.

Consider `CCc1noc(-c2ccc(C(=O)NNC(=O)C(F)(F)F)cc2)n1` [IIa.14, 4-(3-ethyl-1,2,4-oxadiazol-5-yl)-N′-(trifluoroacetyl)benzohydrazide], for which the chromatographic logP under setting [2] amounted to 1.93. For `O=C(NNC(=O)C(F)F)c1cnc(NC2(c3ccccc3)CCC2)nc1` [N′-(difluoroacetyl)-2-[(1-phenylcyclobutyl)amino]pyrimidine-5-carbohydrazide], the chromatographic logP under setting [2] worked out at 1.99. `CCOC(=O)c1cnc(NC2(c3ccccc3)CCC2)nc1` [ethyl 2-[(1-phenylcyclobutyl)amino]pyrimidine-5-carboxylate]: the chromatographic logP under setting [2] came to 3.53. On the same count and under the same terms, the figure for `CCc1noc(-c2ccc(C(=O)NNC(=O)OC(C)(C)C)cc2)n1` [tert-butyl 2-[4-(3-ethyl-1,2,4-oxadiazol-5-yl)benzoyl]hydrazinecarboxylate] is 1.23.
